In article PMC4229492 (International journal of toxicology, 2014):
Several values for one entry are separate records, joined by “and”; a condition that tells them apart may be missing. Equal entries are not always repeated.

What was measured:
human whole blood = experiment: In vitro methemoglobin assay; type: cell-based
[1] = test system: Salmonella typhimurium TA98; experiment: Ames assay, strain TA98; type: cell-based; settings: for Mutagenic response (dose-related increase in revertant colonies): TA98, with and without metabolic activation; for Cytotoxicity to TA98: under any test condition; for Doses at which precipitate was seen on the plates: Ames plates
[2] = cited from earlier work
[3] = test system: human liver cancer cell lines (HepG2, Hep3B, Huh7, PLC5); experiment: Cytotoxicity, panel of four human liver cancer cell lines; type: cell-based; settings: read-out: IC50 values, range over the panel of human liver cells
T. b. rhodesiense = settings: read-out: antitrypanosomal IC50; T. b. rhodesiense in vitro; cited from earlier work
[4] = test system: first stage trypanosome infection; settings: i.p. 50 mg/kg/day for five days; cited from earlier work
L6 rat myoblasts = settings: read-out: IC50 against the L6 cell line; L6 rat myoblasts in vitro; cited from earlier work

In the case of `CC1=CC(C)(C)N(Cc2ccccc2)c2ccc(Cl)cc21` [JR-I-78, 1-benzyl-6-chloro-2,2,4-trimethyl-1,2-dihydroquinoline], the Methemoglobin level (human whole blood; 10 μM, 60 min, 37 °C) is reported as 0.8%, the Methemoglobin level (human whole blood; 50 μM, 60 min, 37 °C) is reported as 0.8% and the “Mutagenic response (dose-related increase in revertant colonies)” value [1] is reported as “did not elicit a mutagenic response”. For the same compound, the “Cytotoxicity to TA98” value [1] was “not cytotoxic”.

For `CC1=CC(C)(C)N(Cc2ccccc2)c2ccc(O)cc21.Cl` [OSU-36.HCl, 1-benzyl-1,2-dihydro-2,2,4-trimethylquinolin-6-ol hydrochloride], the Methemoglobin level (human whole blood; 10 μM, 60 min, 37 °C) is given as 2.1%, the Methemoglobin level (human whole blood; 50 μM, 60 min, 37 °C) is given as 9.3% and the OSU-36 plasma concentration ([2]; intravenous OSU-36.HCl 2 mg/kg, measured at 60 min, analyte OSU-36) is given as “approximately 150 ng/mL and ~ 0.53 μM”. The IC50 [3] was 5.2 to 20 µM, the IC50 (T. b. rhodesiense) was 0.013 µM and the “Outcome in murine first stage trypanosomiasis model” value [4] was “resulted in cures”. The IC50 (L6 rat myoblasts) was 11 µM, the “Doses at which precipitate was seen on the plates” value [1] was at least 500 μg/plate and the “Mutagenic response (dose-related increase in revertant colonies)” value [1] was “did not elicit a mutagenic response”. The “Doses cytotoxic to the TA98 strain” value ([1]; in the absence of metabolic activation) was at least 100 μg/plate and the “Doses cytotoxic to the TA98 strain” value ([1]; in the presence of metabolic activation) was at least 500 μg/plate.

For `COc1ccccc1CN1c2ccc(OC(C)=O)cc2C(C)=CC1(C)C` [OSU-75, 1-(2-methoxybenzyl)-1,2-dihydro-2,2,4-trimethylquinolin-6-yl acetate], the Methemoglobin level (human whole blood; 10 μM, 60 min, 37 °C) is listed as 1.2%, the Methemoglobin level (human whole blood; 50 μM, 60 min, 37 °C) is listed as 3.8% and the “Outcome in murine first stage trypanosomiasis model” value [4] is listed as “resulted in cures”. The “Doses at which precipitate was seen on the plates” value [1] was at least 500 μg/plate, the “Mutagenic response (dose-related increase in revertant colonies)” value [1] was “did not elicit a mutagenic response” and the “Cytotoxicity to TA98” value [1] was “not cytotoxic”.

`O=N[O-].[Na+]` [Sodium nitrite, reference compound] gave a Methemoglobin level (human whole blood; 5 mM, 10 min) of 37.4%, a Methemoglobin level (human whole blood; 5 mM, 30 min) of 41.2% and a Methemoglobin level (human whole blood; 5 mM, 60 min) of 50.6%.

For `CC(=O)Oc1ccc2c(c1)C(C)=CC(C)(C)N2Cc1ccccc1` [OSU-40, 1-benzyl-1,2-dihydro-2,2,4-trimethylquinolin-6-yl acetate], the Deacetylation in vivo ([2]; preliminary pharmacokinetic studies in rats) is given as “rapidly deacetylated”, the IC50 [3] is given as 8 to 36 µM and the IC50 (T. b. rhodesiense) is given as 0.012 µM. The IC50 (L6 rat myoblasts) was 24 µM.
